Experimental data taken from patent US8969573B2, “Compounds for the inhibition of cellular proliferation” (President and Fellows of Harvard College, priority 2010, dated 2015).
Read-outs that look alike come from different tables or passages of the source.

Key:
[1] = tested on: CRL2351 human breast cancer; assay: SRB assay (inhibition of cell proliferation); type: cell-based; conditions: CRL2351 human breast cancer cells
Description: (§1) A sulfur rhodamine B (SRB) assay was used to determine the extent of inhibition of cell proliferation as a measure of the anti-cancer activity of compounds of the present disclosure. The reagent SRB binds to cellular proteins and absorbs light proportionally to the cellular protein content, which is a surrogate marker for the number of cells. According to aspects of the present disclosure, the assay can be used to with any cancer cell line including breast cancer cell lines, prostate cancer cell lines, melanoma cell lines, lung cancer cell lines or any other cell lines of the cancers described herein.
(§2) The following protocol was used to determine the growth characteristics of certain cell lines CRL2351 human breast cancer and CRL2813 human melanoma from which cell lines having doubling times less than 48 hours were selected for growth inhibition experiments. […] The following materials were used in addition to the cancel cell lines: complete (5% fetal calf serum added) tissue culture media, 96-well tissue culture plates, Sulforhodamine B dye (SRB, 0.57% w/w), […] (TCA, 10%), acetic acid glacial (1%) and 10 mM Tris base. The cells were prepared and plated. Cancer cells were grown to 80% confluency in an incubator. The cells were trypsinized per standard protocol or as needed for each cell line. The trypsin was neutralized, cells dissociated and counted. Each cell line was plated at a density of 500, 1000 and 3000 cells per well (six wells each) in five separate plates. The cells were then returned to the incubator. One plate was then removed each day starting day one after plating. 100 μl of 10% TCA was then added and the cells were fixed at 4° C. until all the cells were fixed. […] The cell growth for vehicle treatment is considered to be 100%. The optical density was then measured and plotted for each starting cell number and cell line against time. The percent cell growth inhibition was calculated as 100 minus the % of control cell growth. The % of control cell growth=((mean OD sample−Mean OD day 0)/(mean OD vehicle−Mean OD day 0))*100.

CRL2813 human melanoma = assay: SRB assay (inhibition of cell proliferation); type: cell-based
Description: as §1, §2

eIF4E/eIF4G interaction = eIF4E/eIF4G interaction (Homo sapiens, UniProt P06730); assay: Fluorescent polarization assay; type: binding; conditions: FITC eIF4G peptide and recombinant eIF4E, ratio to Z (4EGI-1 = 1)
Procedure: The difference between the two measurement yields net polarization which is considered full signal of the assay (100% control). […] The activity of compound at each concentration is determined by comparing the fluorescent polarization (FP) signal in the presence of compound to the control (no compound) value. The percent inhibition is =100-((FP compound/FP control)*100).

[2] = Homo sapiens, summary table, read-out: IC50 [μM} CRL2351
[3] = Homo sapiens, CRL2813, CRL2813 human melanoma cells, summary table, read-out: IC50 [μM} CRL2813
[4] = Homo sapiens, CRL2813, CRL2813 human melanoma cells, Tables 1, 4, 5, read-out: SRB-IC50 (μM) 2813
[5] = summary table, read-out: IC50 [μM} CRL2351
[6] = CRL2813 human melanoma cells, summary table, read-out: IC50 [μM} CRL2813
[7] = Tables 1, 4, 5, read-out: SRB-IC50 (μM) 2351
[8] = CRL2813 human melanoma cells, Tables 1, 4, 5, read-out: SRB-IC50 (μM) 2813

eIF4E/eIF4G interaction, sequence (P06730 whole entry): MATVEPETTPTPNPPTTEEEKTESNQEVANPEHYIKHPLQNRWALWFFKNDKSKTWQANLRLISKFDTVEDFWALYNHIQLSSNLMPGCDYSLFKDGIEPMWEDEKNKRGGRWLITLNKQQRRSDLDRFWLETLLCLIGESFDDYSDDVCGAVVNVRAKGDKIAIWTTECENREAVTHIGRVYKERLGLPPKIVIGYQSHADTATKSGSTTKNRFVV

Row | Compound | Fp (ratio to Z) (eIF4E/eIF4G interaction) | IC50 [1, 7] [µM] | IC50 (CRL2813 human melanoma; [8]) [µM] | other results
1 | O=C(O)/C(Cc1ccc([N+](=O)[O-])cc1)=N\Nc1nc(-c2ccc(Cl)c(Cl)c2)cs1 [KY-755-p] | 1 |  |  | IC50 [1, 2]: 15 µM; IC50 (CRL2813 human melanoma; [3]): 5 µM
2 | [N-]=[N+]=NCCCCCOc1ccc(-c2csc(N/N=C(/Cc3ccccc3[N+](=O)[O-])C(=O)O)n2)cc1 [KH-168S] | 1.29 |  |  | IC50 [1, 2]: > 20 µM; IC50 (CRL2813 human melanoma; [4]): 16 µM; IC50 (CRL2813 human melanoma; [3]): 16 µM
3 | O=C(O)/C(Cc1ccccc1[N+](=O)[O-])=N\Nc1nc(-c2ccc(OCCCCCBr)cc2)cs1 [KH-148I] | 1.50 |  |  | IC50 (CRL2813 human melanoma; [3]): 0.9 µM
4 | O=C(O)/C(Cc1ccccc1[N+](=O)[O-])=N/Nc1nc2c(s1)COc1cc(Cl)c(Cl)cc1-2 [PC-204F, 2-(2-(7,8-dichloro-4H-chromeno[4,3-d]thiazol-2-yl)hydrazono)-3-(2-nitrophenyl)propanoic acid] |  |  |  | IC50 [1, 2]: 2 µM
5 | O=C(O)[C@@H](Cc1cccc([N+](=O)[O-])c1)Nc1nc(-c2ccc(Cl)c(Cl)c2)cs1 [KY-365] | 0.82 |  |  | IC50 [1, 2]: 3 µM
6 | O=C(O)C(=NNc1nc(-c2ccc(Cl)c(Cl)c2)cs1)c1cccc([N+](=O)[O-])c1 (stereo in doubt) [KY-788-Z, (Z)-2-(2-(4-(3,4-dichlorophenyl)thiazol-2-yl)hydrazono)-2-(3-nitrophenyl)acetic acid] | 0.86 |  |  | IC50 [1, 2]: > 20 µM
7 | O=C(O)C(Cc1ccccc1[N+](=O)[O-])=NNc1nc(-c2ccc(OCCCCOc3ccc(Cl)cc3)cc2)cs1 [KH-336S] | 0.96 |  |  | 
8 | O=C(O)C(Cc1ccccc1[N+](=O)[O-])=NNc1nc(-c2ccc(OCCCOc3ccc(Cl)cc3)cc2)cs1 [KH-332S] | 1.09 |  |  | 
9 | O=C(O)/C(Cc1ccccc1[N+](=O)[O-])=N\Nc1nc2c(s1)CSc1cc(Cl)c(Cl)cc1-2 [PC-218S] |  |  |  | IC50 [1, 2]: 5.5 µM; IC50 (CRL2813 human melanoma; [3]): 3 µM
10 | O=C(O)/C(Cc1ccccc1[N+](=O)[O-])=N\Nc1nc(-c2ccc(N3CCOCC3)c(Br)c2)cs1 [KH-287II-S] | 0.62 |  |  | 
11 | O=C(O)C(Cc1ccccc1[N+](=O)[O-])=NNc1nc(-c2ccc(Cl)c(Cl)c2)cs1 [Compound 4EGI-1, reference compound] |  |  |  | IC50 ([1]; Homo sapiens, Tables 1, 4, 5, read-out: SRB-IC50 (μM) 2351): 6.5 µM; IC50 [1, 2]: 5 ± 1.6 µM; IC50 (CRL2813 human melanoma; [4]): 1.3 µM; IC50 (CRL2813 human melanoma; [3]): 3.8 ± 1.06 µM
12 | 2-(2-(6,7-dichloro-4,5-dihydronaphtho[1,2-d]thiazol-2-yl)hydrazono)-3-(2-nitrophenyl)propanoic acid [PC-163F] |  |  |  | IC50 [1, 5]: < 1 µM; IC50 (CRL2813 human melanoma; [6]): < 1 µM
13 | 2-(2-(7,8-dichloro-4,5-dihydronaphtho[1,2-d]thiazol-2-yl)hydrazono)-3-(2-nitrophenyl)propanoic acid [PC-159S] |  |  |  | IC50 [1, 5]: 12.5 µM; IC50 (CRL2813 human melanoma; [6]): 4 µM
14 | O=C(O)C(Cc1ccccc1[N+](=O)[O-])=NNc1nc(-c2cccc(OCCCBr)c2)cs1 (single isomer, unassigned) [KH154-f] |  | 3.5 | 0.7 | 
15 | O=C(O)C(Cc1ccccc1[N+](=O)[O-])=NNc1nc(-c2ccc(OCCCBr)cc2)cs1 (single isomer, unassigned) [KH147-s] |  | 11.2 | 5.5 | 
16 | O=C(O)C(Cc1ccccc1[N+](=O)[O-])=NNc1nc(-c2cccc(OCCCBr)c2)cs1 (single isomer, unassigned) [KH154-s] |  | 1.5 |  | 
17 | O=C(O)C(Cc1ccccc1[N+](=O)[O-])=NNc1nc(-c2ccccc2OCCCCCBr)cs1 (single isomer, unassigned) [KH152-f] |  | 2.4 | < 1 | 
18 | O=C(O)C(Cc1ccccc1[N+](=O)[O-])=NNc1nc(-c2ccc(Br)cc2)cs1 [KH-53S] | 0.61 |  |  | 
19 | O=C(O)/C(Cc1ccccc1[N+](=O)[O-])=N/Nc1nc2c(s1)CSc1c-2ccc(Cl)c1Cl [PC-218F] |  |  |  | IC50 [1, 2]: < 1 µM; IC50 (CRL2813 human melanoma; [3]): 8 µM
20 | O=C(O)C(Cc1ccccc1[N+](=O)[O-])=NNc1nc(-c2ccc(OCCCBr)cc2)cs1 (single isomer, unassigned) [KH147-f] |  | 0.5 | 1.1 | 
21 | O=C(O)C(Cc1ccccc1[N+](=O)[O-])=NNc1nc(-c2ccccc2OCCCCCBr)cs1 (single isomer, unassigned) [KH152-s] |  | 7.8 | 4.5 | 

Row | Compound | Fp (ratio to Z) (eIF4E/eIF4G interaction) | IC50 [1, 7] [µM] | IC50 (CRL2813 human melanoma; [8]) [µM] | other results
22 | O=C(O)C(Cc1ccccc1[N+](=O)[O-])=NNc1nc(-c2ccc(OCCCCCBr)cc2)cs1 (mixture of isomers) [KH148] |  | < 0.54 | 0.8 | 
23 | O=C(O)c1nn(-c2nc(-c3ccc(Cl)c(Cl)c3)cs2)c2ccc([N+](=O)[O-])cc12 [RYF-440] | 1.3 |  |  | 
24 | CCN(CC)c1ccc(-c2csc(N/N=C(\Cc3ccccc3[N+](=O)[O-])C(=O)O)n2)cc1 [KY-615F] |  |  |  | IC50 [1, 5]: 5.7 µM; IC50 (CRL2813 human melanoma; [6]): 18.8 µM
25 | O=C(O)C(Cc1ccccc1[N+](=O)[O-])=NNc1nc(-c2cccc(OCCCCBr)c2)cs1 (mixture of isomers) [KH155] |  | 8.6 | 10.8 | 
26 | O=C(O)/C(Cc1ccccc1[N+](=O)[O-])=N/Nc1nc2c(s1)COc1c-2ccc(Cl)c1Cl [PC-202F, 2-(2-(6,7-dichloro-4H-chromeno[4,3-d]thiazol-2-yl)hydrazono)-3-(2-nitrophenyl)propanoic acid] |  |  |  | IC50 (CRL2813 human melanoma; [3]): < 1 µM
27 | 2-(2-(6,7-dichloro-4,5-dihydronaphtho[1,2-d]thiazol-2-yl)hydrazono)-3-(2-nitrophenyl)propanoic acid [PC-163S] |  |  |  | IC50 [1, 5]: 3 µM; IC50 (CRL2813 human melanoma; [6]): 3 µM
28 | 2-(2-(7,8-dichloro-4H-chromeno[4,3-d]thiazol-2-yl)hydrazono)-3-(2-nitrophenyl)propanoic acid [PC-204S] |  |  |  | IC50 [1, 5]: < 1 µM; IC50 (CRL2813 human melanoma; [6]): 3 µM
29 | O=C(O)C(Cc1ccccc1[N+](=O)[O-])=NNc1nc(-c2cccc(OCCBr)c2)cs1 (single isomer, unassigned) [KH153-f] |  | 13.2 | 8 | 
30 | O=C(O)C(Cc1ccccc1[N+](=O)[O-])=NNc1nc(-c2ccccc2OCCBr)cs1 (single isomer, unassigned) [KH149-s] |  | 6 | 11.5 | 
31 | O=C(O)C(Cc1ccccc1[N+](=O)[O-])=NNc1nc(-c2ccc(OCCBr)cc2)cs1 (single isomer, unassigned) [KH146-s] |  | 14.5 | 14 | 
32 | O=C(O)C(Cc1ccccc1[N+](=O)[O-])=NNc1nc(-c2cccc(OCCCCCBr)c2)cs1 (mixture of isomers) [KH156] |  | 9.1 | 6 | 
33 | O=C(O)C(Cc1ccccc1[N+](=O)[O-])=NNc1nc(-c2ccccc2OCCBr)cs1 (single isomer, unassigned) [KH149-f] |  | 1 | 1 | 
34 | [N-]=[N+]=Nc1ccc(-c2csc(NN=C(Cc3ccccc3[N+](=O)[O-])C(=O)O)n2)cc1 [KH-8] | 0.99 |  |  | 
35 | O=C(O)C(Cc1ccccc1[N+](=O)[O-])=NNc1nc(-c2ccc(OCCCCCOc3ccccc3)cc2)cs1 [KH-333S] | 0.96 |  |  | 
36 | COc1cc2c(cc1OC)-c1nc(N/N=C(/Cc3ccccc3[N+](=O)[O-])C(=O)O)sc1CC2 [PC-195S, (Z)-2-(2-(7,8-dimethoxy-4,5-dihydronaphtho[1,2-d]thiazol-2-yl)hydrazono)-3-(2-nitrophenyl) propanoic acid] |  |  |  | IC50 [1, 2]: 4 µM; IC50 (CRL2813 human melanoma; [3]): 7.5 µM
37 | COc1ccc(-c2sc(N/N=C(/Cc3ccccc3[N+](=O)[O-])C(=O)O)nc2-c2ccc(C3CCCCC3)cc2)cc1 [KY-612SF] | 1 |  |  | IC50 (CRL2813 human melanoma; [6]): 0.1 µM
38 | O=C(O)C(Cc1ccccc1[N+](=O)[O-])=NNc1nc(-c2cccc(OCCBr)c2)cs1 (single isomer, unassigned) [KH153-s] |  | 14 |  | 
39 | O=C(O)C(Cc1ccccc1[N+](=O)[O-])=NNc1nc(-c2ccccc2OCCCBr)cs1 (mixture of isomers) [KH150] |  | 2.8 | 0.9 | 
40 | O=C(O)/C(Cc1ccccc1[N+](=O)[O-])=N\Nc1nc2c(s1)COc1c-2ccc(Cl)c1Cl [PC-202S, 2-(2-(6,7-dichloro-4H-chromeno[4,3-d]thiazol-2-yl)hydrazono)-3-(2-nitrophenyl)propanoic acid] |  |  |  | IC50 (CRL2813 human melanoma; [3]): 4.5 µM
41 | O=C(O)C(Cc1ccccc1[N+](=O)[O-])=NNc1nc(-c2ccc(OCCBr)cc2)cs1 (single isomer, unassigned) [KH146-f] |  | < 0.54 | 2.1 | 
